Measurements published in the supplement of paper PMC10307832.

Columns and labels:
Experiment in all cases: relative viability (nuclei count vs DMSO), 5 days (fraction); higher = more cells survive
[1] = compound: Cc1ccc(NC(=O)c2ccc(CN3CCN(C)CC3)cc2)cc1Nc1nc(-c2cccnc2)cs1 [Masitinib] + COc1cccc2cc(-c3nc([C@H]4CC[C@H](C(=O)O)CC4)n4ncnc(N)c34)[nH]c12 [OSI-027] (partner 0.5 µM)
Summary of the method: (§1)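 Lung cancer cell lines in 1536-well plates were dosed by pin tool the day after seeding, either with one drug alone or with a fixed anchor-drug dose plus five library-drug doses (not always all listed) in √10 steps. After 5 days, cells were fixed and their nuclei stained in one step (final 0.05% Triton X-100, 1% formaldehyde, 1 ug/ml Hoechst), then counted on 4× images. Relative viability is the nuclei count in treated wells divided by that in vehicle wells. Values are medians of duplicate plates.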

[2] = compound: Cc1ccc(NC(=O)c2ccc(CN3CCN(C)CC3)cc2)cc1Nc1nc(-c2cccnc2)cs1 [Masitinib] + O=C(CCCCCCC(=O)Nc1ccccc1)NO [Vorinostat] (partner 1 µM)
Summary of the method: as §1

[3] = compound: Cc1ccc(NC(=O)c2ccc(CN3CCN(C)CC3)cc2)cc1Nc1nc(-c2cccnc2)cs1 [Masitinib] + C[C@]1(O)C[C@@H](c2nc(-c3ccc4ccc(-c5ccccc5)nc4c3)c3c(N)nccn32)C1 [Linsitinib] (partner 1 µM)
Summary of the method: as §1

[4] = compound: Cc1ccc(NC(=O)c2ccc(CN3CCN(C)CC3)cc2)cc1Nc1nc(-c2cccnc2)cs1 [Masitinib] + Cc1nc(NC(=O)N2CCC[C@H]2C(N)=O)sc1-c1ccnc(C(C)(C)C(F)(F)F)c1 [Alpelisib] (partner 2 µM)
Summary of the method: as §1

Row | Cell Line | relative viability ([1]; first compound 0.01 µM) | relative viability ([1]; first compound 0.03162 µM) | relative viability ([1]; first compound 0.1 µM) | relative viability ([1]; first compound 0.3162 µM) | relative viability ([1]; first compound 1 µM) | relative viability ([2]; first compound 0.01 µM) | relative viability ([2]; first compound 0.03162 µM) | relative viability ([2]; first compound 0.1 µM) | relative viability ([2]; first compound 0.3162 µM) | relative viability ([2]; first compound 1 µM) | relative viability ([3]; first compound 0.01 µM) | relative viability ([3]; first compound 0.03162 µM) | relative viability ([3]; first compound 0.1 µM) | relative viability ([3]; first compound 0.3162 µM) | relative viability ([3]; first compound 1 µM) | relative viability ([4]; first compound 0.01 µM) | relative viability ([4]; first compound 0.03162 µM) | relative viability ([4]; first compound 0.1 µM) | relative viability ([4]; first compound 0.3162 µM) | relative viability ([4]; first compound 1 µM)
1 | HCC-827 | 0.728 | 0.704 | 0.832 | 0.84 | 0.692 | 0.603 | 0.845 | 0.712 | 0.876 | 0.745 | 1.03 | 0.969 | 0.976 | 0.935 | 0.935 | 0.91 | 0.994 | 1.1 | 0.928 | 0.997
2 | SW 1573 | 0.646 | 0.627 | 0.798 | 0.66 | 0.559 | 0.645 | 0.763 | 0.929 | 0.968 | 0.973 | 0.689 | 0.848 | 0.985 | 0.838 | 0.803 | 0.89 | 0.768 | 0.873 | 0.831 | 0.66
3 | NCI-H1993 | 0.533 | 0.533 | 0.489 | 0.541 | 0.514 | 0.727 | 0.527 | 0.943 | 0.723 | 0.762 | 0.732 | – | 0.733 | 0.659 | 0.665 | 0.669 | – | 0.627 | 0.728 | 0.636
4 | NCI-H1734 | 0.668 | 0.625 | 0.599 | 0.568 | 0.544 | 0.751 | 0.756 | 0.773 | 0.779 | 0.794 | 0.857 | 0.854 | 0.943 | 0.747 | 0.855 | 0.616 | 0.715 | 0.764 | 0.383 | 0.658
5 | NCI-H1666 | – | 0.861 | 0.921 | 0.792 | 0.833 | 1.08 | 0.875 | 1.09 | 1.02 | 1.09 | 0.806 | 0.774 | 0.846 | 0.781 | 0.718 | 0.92 | 1.05 | 0.943 | 0.706 | 0.99
6 | NCI-H460 | 0.796 | 0.705 | 0.674 | 0.558 | 0.522 | 0.766 | 0.418 | 0.841 | 0.647 | 0.758 | 0.934 | 0.934 | 0.977 | 1.26 | 1.07 | 0.479 | 0.522 | 0.521 | 0.429 | 0.471
7 | LCLC-103H | 0.412 | 0.526 | 0.414 | 0.459 | 0.404 | – | 0.778 | 0.666 | 0.778 | 0.761 | 0.796 | 1.02 | 0.859 | 1.01 | 1.08 | 0.711 | 0.913 | 0.917 | 0.992 | 0.971
8 | LCLC-97TM1 | – | 0.534 | 0.559 | 0.568 | 0.516 | 0.534 | 0.778 | 0.472 | 0.887 | 0.712 | 0.157 | 0.151 | 0.197 | 0.144 | 0.181 | 0.25 | 0.241 | 0.275 | 0.402 | 0.27
9 | NCI-H838 | 0.353 | 0.331 | 0.385 | 0.342 | 0.394 | 0.7 | 0.664 | 0.773 | 0.639 | 0.703 | 0.895 | 0.913 | 1.16 | 0.86 | 1.05 | 0.912 | 0.865 | 0.992 | 0.769 | 0.957
10 | NCI-H1437 | 0.768 | 0.936 | 0.899 | 0.879 | 0.858 | 0.798 | 0.799 | 0.932 | 0.789 | 0.75 | 1.1 | 0.991 | 0.986 | 1.04 | 1.07 | 0.918 | 0.979 | 1.01 | 1.08 | 0.962
11 | HOP-62 | 0.759 | 0.866 | 0.923 | 0.929 | 0.837 | 0.588 | 0.573 | 0.681 | 0.746 | 0.687 | 0.916 | 0.978 | 0.973 | 0.917 | 0.833 | 0.777 | 1.09 | 1.18 | 1.07 | 0.83
12 | NCI-H2087 | 0.627 | 0.628 | 0.743 | 0.481 | 0.437 | 0.532 | 0.828 | 0.672 | 0.72 | 0.746 | 0.936 | 0.951 | 0.923 | 1.01 | 0.884 | 1.07 | 1.05 | 1.19 | 1.15 | 1.08
